According to the supplement of paper PMC10307832:

Experiments:
Assay in all cases: relative viability (nuclei count vs DMSO), 5 days (fraction); higher = more cells survive
[1] = compound: C1=CC2=NC=CN=C2C=C1/C=C/3\C(=O)NC(=O)S3 + Nc1ncn([C@H]2C[C@H](O)[C@@H](CO)O2)c(=O)n1 [Decitabine] (partner 2 µM)
Summary of the method: (§1)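 Lung cancer cell lines were seeded in 1536-well plates and dosed by pin tool the next day, with either a single drug or a fixed anchor-drug dose combined with five library-drug doses (not always all listed) spaced in √10 steps. Five days later, one step fixed the cells and stained their nuclei (final 0.05% Triton X-100, 1% formaldehyde, 1 ug/ml Hoechst), and nuclei were counted on 4× images. Relative viability is the nuclei count in treated wells divided by the count in vehicle wells, and each value is the median of duplicate plates.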

[2] = compound: C1=CC2=NC=CN=C2C=C1/C=C/3\C(=O)NC(=O)S3 + O=C(CCCCCCC(=O)Nc1ccccc1)NO [Vorinostat] (partner 1 µM)
Summary of the method: as §1

BGJ398 + Lapatinib = compound: CCN1CCN(c2ccc(Nc3cc(N(C)C(=O)Nc4c(Cl)c(OC)cc(OC)c4Cl)ncn3)cc2)CC1 [BGJ398] + CS(=O)(=O)CCNCc1ccc(-c2ccc3ncnc(Nc4ccc(OCc5cccc(F)c5)c(Cl)c4)c3c2)o1 [Lapatinib] (partner 2 µM)
Summary of the method: as §1

BGJ398 + Alpelisib = compound: CCN1CCN(c2ccc(Nc3cc(N(C)C(=O)Nc4c(Cl)c(OC)cc(OC)c4Cl)ncn3)cc2)CC1 [BGJ398] + Cc1nc(NC(=O)N2CCC[C@H]2C(N)=O)sc1-c1ccnc(C(C)(C)C(F)(F)F)c1 [Alpelisib] (partner 2 µM)
Summary of the method: as §1

| Cell Line | relative viability ([1]; first compound 0.02 µM) | relative viability ([1]; first compound 0.06325 µM) | relative viability ([1]; first compound 0.2 µM) | relative viability ([1]; first compound 0.6325 µM) | relative viability ([1]; first compound 2 µM) | relative viability ([2]; first compound 0.02 µM) | relative viability ([2]; first compound 0.06325 µM) | relative viability ([2]; first compound 0.2 µM) | relative viability ([2]; first compound 0.6325 µM) | relative viability ([2]; first compound 2 µM) | relative viability (BGJ398 + Lapatinib; first compound 0.01 µM) | relative viability (BGJ398 + Lapatinib; first compound 0.03162 µM) | relative viability (BGJ398 + Lapatinib; first compound 0.1 µM) | relative viability (BGJ398 + Lapatinib; first compound 0.3162 µM) | relative viability (BGJ398 + Lapatinib; first compound 1 µM) | relative viability (BGJ398 + Alpelisib; first compound 0.01 µM) | relative viability (BGJ398 + Alpelisib; first compound 0.03162 µM) | relative viability (BGJ398 + Alpelisib; first compound 0.1 µM) | relative viability (BGJ398 + Alpelisib; first compound 0.3162 µM) | relative viability (BGJ398 + Alpelisib; first compound 1 µM) |
| --- | --- | --- | --- | --- | --- | --- | --- | --- | --- | --- | --- | --- | --- | --- | --- | --- | --- | --- | --- | --- |
| 201T | 0.901 | 0.864 | 0.824 | 0.87 | 0.879 | 0.763 | 0.949 | 0.985 | 0.898 | 0.723 | 1.14 | 1.02 | 0.997 | 1.02 | 0.697 | 1.08 | 1.01 | 0.893 | 0.964 | 0.994 |
| A549 | 0.292 | 0.245 | 0.297 | 0.273 | 0.293 | – | – | – | – | – | 0.885 | 0.99 | 0.952 | 0.919 | 0.819 | 0.782 | 0.864 | 0.847 | 0.635 | 0.872 |
| A-427 | 0.541 | 0.583 | 0.55 | 0.538 | 0.491 | 0.791 | 0.877 | 0.888 | 0.864 | 0.947 | 1.07 | 1.01 | 1.05 | 0.938 | 0.949 | 1.08 | 1.07 | 0.944 | 0.848 | 0.662 |
| ABC-1 | 1.04 | 1.31 | 1.4 | 1.1 | 0.806 | 1.27 | 1.16 | 1.56 | 1.01 | 0.912 | 1.07 | 1.06 | 1.16 | 1.23 | 1.22 | 0.96 | 1.04 | 1.03 | 1.15 | 0.836 |
| BEN | 0.715 | 0.774 | 0.886 | 0.691 | 0.635 | 0.506 | 0.553 | 0.539 | 0.52 | 0.477 | 0.608 | 0.828 | 0.7 | 0.656 | 0.671 | 0.896 | 1.2 | 0.993 | 0.923 | 0.759 |
| CAL-12T | – | – | – | – | – | 0.78 | 0.923 | 0.663 | 0.629 | 0.762 | 0.661 | 0.685 | 0.763 | 0.726 | 0.585 | 1.11 | 1.37 | 1.25 | 1.36 | 1.47 |
| COR-L23 | 0.481 | 0.466 | 0.445 | 0.414 | 0.369 | 0.39 | 0.486 | 0.471 | 0.408 | 0.345 | 0.887 | 0.903 | 1.15 | 0.992 | 0.908 | 0.755 | 0.872 | 0.686 | 0.843 | 0.824 |
| COR-L 105 | 0.599 | 0.69 | 0.673 | 0.683 | 0.593 | 0.694 | 0.872 | 0.697 | 0.605 | 0.835 | 0.379 | 0.303 | 0.329 | 0.386 | 0.382 | 0.919 | 0.956 | 0.979 | 1.05 | 1.06 |
| Calu-6 | – | – | – | – | – | – | – | – | – | – | 1.04 | 1.13 | 1.07 | 1.09 | 1.03 | 0.861 | 1.01 | 0.984 | 0.999 | 0.944 |
